Source: ChEMBL document CHEMBL4507328, “Data for DCP probe BAY-390” (2021)
Activity calls are given as the source filed them.

What was measured:
[1] = target: 5-hydroxytryptamine receptor 2A (Homo sapiens, UniProt P28223); experiment: GPCRScan assay: inhibition of 5-HT2A; set-up: radioligand conc. used [nm] 1.2 – 2.4, parental cells HEKT
[2] = target: Beta-3 adrenergic receptor (Homo sapiens) (UniProt P13945); conditions: Compound concentration 10.0 uM
[3] = target: Type-2 angiotensin II receptor (Homo sapiens) (UniProt P50052); conditions: Compound concentration 10.0 uM
[4] = target: Adenosine receptor A2a (Homo sapiens) (UniProt P29274); conditions: Compound concentration 10.0 uM
Histamine H2 receptor = Histamine H2 receptor (Homo sapiens, UniProt P25021); conditions: Compound concentration 10.0 uM
[5] = target: Glutamate receptor 2 (Homo sapiens) (UniProt P42262); conditions: Rattus norvegicus; Compound concentration 10.0 uM
[6] = target: Voltage-dependent T-type calcium channel subunit alpha-1H (Homo sapiens, UniProt O95180); experiment: Selectivity screen (CACNA1H)
Sequence of Voltage-dependent T-type calcium channel subunit alpha-1H (O95180 whole entry): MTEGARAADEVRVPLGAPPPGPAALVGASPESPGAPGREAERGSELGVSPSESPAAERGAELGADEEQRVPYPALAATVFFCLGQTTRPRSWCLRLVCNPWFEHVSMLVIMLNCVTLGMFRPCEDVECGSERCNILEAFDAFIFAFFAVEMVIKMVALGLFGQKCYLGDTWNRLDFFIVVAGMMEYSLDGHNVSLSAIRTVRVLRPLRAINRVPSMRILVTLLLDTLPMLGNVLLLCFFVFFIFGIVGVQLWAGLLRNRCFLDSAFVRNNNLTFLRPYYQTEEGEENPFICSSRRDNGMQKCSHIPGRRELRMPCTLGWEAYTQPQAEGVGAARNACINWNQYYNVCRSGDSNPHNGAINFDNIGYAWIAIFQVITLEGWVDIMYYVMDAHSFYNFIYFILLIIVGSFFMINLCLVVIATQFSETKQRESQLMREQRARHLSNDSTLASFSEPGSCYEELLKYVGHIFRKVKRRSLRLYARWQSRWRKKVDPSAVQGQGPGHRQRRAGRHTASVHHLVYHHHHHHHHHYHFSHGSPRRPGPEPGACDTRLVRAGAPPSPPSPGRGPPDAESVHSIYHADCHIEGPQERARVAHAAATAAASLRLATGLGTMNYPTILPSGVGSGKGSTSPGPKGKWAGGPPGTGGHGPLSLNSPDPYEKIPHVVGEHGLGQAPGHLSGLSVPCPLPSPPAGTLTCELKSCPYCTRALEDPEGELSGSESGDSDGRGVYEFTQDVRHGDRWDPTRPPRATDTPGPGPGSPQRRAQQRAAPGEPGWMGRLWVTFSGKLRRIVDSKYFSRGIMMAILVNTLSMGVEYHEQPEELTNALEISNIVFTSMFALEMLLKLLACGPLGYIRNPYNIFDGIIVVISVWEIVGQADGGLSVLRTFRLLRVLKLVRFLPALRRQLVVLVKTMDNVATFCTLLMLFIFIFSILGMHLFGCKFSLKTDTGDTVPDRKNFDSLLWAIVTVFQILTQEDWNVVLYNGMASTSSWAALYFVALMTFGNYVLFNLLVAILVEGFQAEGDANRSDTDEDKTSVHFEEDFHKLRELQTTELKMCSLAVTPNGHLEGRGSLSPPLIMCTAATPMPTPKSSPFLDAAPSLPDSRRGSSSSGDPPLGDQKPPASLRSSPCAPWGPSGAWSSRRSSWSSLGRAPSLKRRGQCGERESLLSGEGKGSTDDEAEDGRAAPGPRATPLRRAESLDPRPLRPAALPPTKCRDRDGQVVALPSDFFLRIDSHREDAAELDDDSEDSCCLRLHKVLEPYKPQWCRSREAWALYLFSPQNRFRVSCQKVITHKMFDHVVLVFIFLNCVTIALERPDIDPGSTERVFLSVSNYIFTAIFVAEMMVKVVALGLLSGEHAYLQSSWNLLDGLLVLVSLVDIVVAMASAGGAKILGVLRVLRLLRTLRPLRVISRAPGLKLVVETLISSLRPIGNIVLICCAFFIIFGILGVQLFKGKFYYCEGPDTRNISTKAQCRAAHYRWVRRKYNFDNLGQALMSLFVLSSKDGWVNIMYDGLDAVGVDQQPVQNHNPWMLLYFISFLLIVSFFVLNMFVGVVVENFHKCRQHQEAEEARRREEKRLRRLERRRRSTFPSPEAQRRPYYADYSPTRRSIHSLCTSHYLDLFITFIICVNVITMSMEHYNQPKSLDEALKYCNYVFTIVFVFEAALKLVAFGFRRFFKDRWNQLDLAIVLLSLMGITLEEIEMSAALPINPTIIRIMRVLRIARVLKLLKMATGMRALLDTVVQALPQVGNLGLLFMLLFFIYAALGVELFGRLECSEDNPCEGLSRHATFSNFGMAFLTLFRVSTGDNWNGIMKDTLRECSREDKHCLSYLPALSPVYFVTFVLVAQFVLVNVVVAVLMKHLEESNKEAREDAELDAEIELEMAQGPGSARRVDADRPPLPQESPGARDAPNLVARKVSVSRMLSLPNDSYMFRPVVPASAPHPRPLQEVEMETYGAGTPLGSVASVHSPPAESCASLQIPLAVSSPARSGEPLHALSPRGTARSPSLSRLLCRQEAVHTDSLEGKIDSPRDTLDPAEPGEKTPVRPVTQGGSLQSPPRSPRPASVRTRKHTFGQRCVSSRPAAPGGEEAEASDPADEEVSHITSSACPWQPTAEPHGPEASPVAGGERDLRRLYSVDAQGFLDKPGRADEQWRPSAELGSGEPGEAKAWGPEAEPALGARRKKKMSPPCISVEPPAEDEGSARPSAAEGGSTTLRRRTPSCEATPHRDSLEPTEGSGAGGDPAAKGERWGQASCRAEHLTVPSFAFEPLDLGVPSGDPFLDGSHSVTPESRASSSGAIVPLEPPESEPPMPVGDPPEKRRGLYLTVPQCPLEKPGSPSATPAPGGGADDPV

Oryctolagus cuniculus = species: Oryctolagus cuniculus; experiment: Inhibition of Purinergic P2X at 10 µM in the Eurofins-Panlabs radioligand binding assay (Eurofins_assay_268700); type: protein assay; conditions: Compound concentration 10.0 uM
[7] = target: Androgen receptor (Homo sapiens) (UniProt P10275); conditions: Compound concentration 10.0 uM
[8] = target: Progesterone receptor (Homo sapiens) (UniProt P06401); conditions: Compound concentration 10.0 uM
[9] = target: Histamine H3 receptor (Homo sapiens) (UniProt Q9Y5N1); conditions: Compound concentration 10.0 uM
[10] = target: 5-hydroxytryptamine receptor 1B (Homo sapiens) (UniProt P28222); conditions: Compound concentration 10.0 uM
[11] = target: T1, Sodium-dependent dopamine transporter (Homo sapiens, UniProt Q01959); experiment: GPCRScan assay: inhibition of DAT; set-up: radioligand conc. used [nm] 3.6 – 16.0, parental cells stable HEK
T1 sequence (Q01959 whole entry): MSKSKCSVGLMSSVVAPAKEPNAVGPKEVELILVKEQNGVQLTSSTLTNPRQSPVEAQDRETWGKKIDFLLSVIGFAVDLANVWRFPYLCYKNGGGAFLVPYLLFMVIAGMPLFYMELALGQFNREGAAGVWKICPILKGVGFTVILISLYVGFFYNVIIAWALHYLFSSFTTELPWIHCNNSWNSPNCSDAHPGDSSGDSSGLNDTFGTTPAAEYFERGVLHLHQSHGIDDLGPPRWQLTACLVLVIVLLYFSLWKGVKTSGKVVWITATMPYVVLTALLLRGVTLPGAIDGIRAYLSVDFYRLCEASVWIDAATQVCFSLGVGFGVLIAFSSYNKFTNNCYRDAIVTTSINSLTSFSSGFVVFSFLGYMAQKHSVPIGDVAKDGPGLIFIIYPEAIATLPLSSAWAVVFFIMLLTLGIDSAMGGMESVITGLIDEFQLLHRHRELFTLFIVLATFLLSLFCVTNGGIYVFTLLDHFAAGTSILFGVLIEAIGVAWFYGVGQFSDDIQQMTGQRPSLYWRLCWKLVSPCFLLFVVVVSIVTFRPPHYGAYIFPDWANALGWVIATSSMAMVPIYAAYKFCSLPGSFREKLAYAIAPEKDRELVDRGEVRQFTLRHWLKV

[12] = target: Beta-2 adrenergic receptor (Homo sapiens) (UniProt P07550); conditions: Compound concentration 10.0 uM
Sequence of Beta-2 adrenergic receptor (Homo sapiens) (P07550 whole entry, looked up): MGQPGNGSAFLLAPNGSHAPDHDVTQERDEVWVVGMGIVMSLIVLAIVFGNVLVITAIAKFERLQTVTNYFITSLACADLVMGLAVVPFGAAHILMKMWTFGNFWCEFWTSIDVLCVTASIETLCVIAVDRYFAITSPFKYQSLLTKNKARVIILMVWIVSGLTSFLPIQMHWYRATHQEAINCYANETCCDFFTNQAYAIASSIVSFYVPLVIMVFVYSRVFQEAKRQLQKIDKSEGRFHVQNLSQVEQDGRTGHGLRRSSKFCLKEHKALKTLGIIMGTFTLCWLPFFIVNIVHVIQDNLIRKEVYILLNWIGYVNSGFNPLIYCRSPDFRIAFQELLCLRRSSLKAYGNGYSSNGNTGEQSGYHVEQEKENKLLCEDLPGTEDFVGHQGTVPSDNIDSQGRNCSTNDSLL

[13] = target: B2 bradykinin receptor (Homo sapiens) (UniProt P30411); conditions: Compound concentration 10.0 uM
[14] = target: GABA-A receptor; anion channel (Rattus norvegicus) (UniProt O09028+P15431+P18506+P18508+P19969+P20236+P23574+P23576+P28471+P28473+P30191+P62813+P63079+P63138+Q91ZM7+Q9ES14); conditions: Compound concentration 10.0 uM
[15] = target: Sigma non-opioid intracellular receptor 1 (Homo sapiens) (UniProt Q99720); conditions: Compound concentration 10.0 uM
Sequence of Sigma non-opioid intracellular receptor 1 (Homo sapiens) (Q99720 whole entry): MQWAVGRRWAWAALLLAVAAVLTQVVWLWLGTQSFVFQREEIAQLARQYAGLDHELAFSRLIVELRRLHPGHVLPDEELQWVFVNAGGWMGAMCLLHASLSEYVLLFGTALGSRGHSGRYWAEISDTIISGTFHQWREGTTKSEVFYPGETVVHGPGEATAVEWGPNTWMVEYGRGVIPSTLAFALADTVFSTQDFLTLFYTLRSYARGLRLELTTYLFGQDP

[16] = target: T2, 5-hydroxytryptamine receptor 1A (Homo sapiens) (UniProt P08908); conditions: Compound concentration 10.0 uM
T2 sequence (whole entry): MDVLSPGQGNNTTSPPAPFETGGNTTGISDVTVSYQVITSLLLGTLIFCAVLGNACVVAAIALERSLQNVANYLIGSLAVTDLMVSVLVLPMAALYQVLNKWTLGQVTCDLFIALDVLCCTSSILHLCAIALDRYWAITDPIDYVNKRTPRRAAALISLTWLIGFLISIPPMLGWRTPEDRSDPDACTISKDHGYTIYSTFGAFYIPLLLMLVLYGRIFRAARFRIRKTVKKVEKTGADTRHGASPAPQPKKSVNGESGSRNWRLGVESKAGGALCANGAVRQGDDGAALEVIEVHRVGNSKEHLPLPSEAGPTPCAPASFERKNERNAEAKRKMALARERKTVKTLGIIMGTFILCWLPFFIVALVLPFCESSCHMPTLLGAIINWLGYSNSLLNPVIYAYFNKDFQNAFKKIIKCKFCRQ

[17] = target: D(1A) dopamine receptor (Homo sapiens) (UniProt P21728); conditions: Compound concentration 10.0 uM
[18] = target: Gamma-aminobutyric acid type B receptor subunit 1 (Homo sapiens) (UniProt Q9UBS5); conditions: Rattus norvegicus; Compound concentration 10.0 uM
[19] = target: Insulin receptor (Homo sapiens) (UniProt P06213); conditions: Rattus norvegicus; Compound concentration 10.0 uM
[20] = target: Estrogen receptor (Homo sapiens) (UniProt P03372); conditions: Compound concentration 10.0 uM
Rattus norvegicus = species: Rattus norvegicus; conditions: Compound concentration 10.0 uM
[21] = target: T1, Sodium-dependent dopamine transporter; experiment: Inhibition of Transporter, Dopamine (DAT) at compound concentration of 10.0 uM in the Eurofins-Panlabs radioligand binding assay (Eurofins_assay_220320); set-up: ligand concentration 0.15 nM, non-specific ligand with concentration 10 uM Nomifensine, incubation time 3 h, incubation temperature 4 C
[22] = target: Sodium-dependent noradrenaline transporter (Homo sapiens) (UniProt P23975); conditions: Compound concentration 10.0 uM
[23] = target: Kappa-type opioid receptor (Homo sapiens) (UniProt P41145); conditions: Compound concentration 10.0 uM
[24] = target: T3, Muscarinic acetylcholine receptor M4 (Homo sapiens) (UniProt P08173); conditions: Compound concentration 10.0 uM
T3 sequence (whole entry): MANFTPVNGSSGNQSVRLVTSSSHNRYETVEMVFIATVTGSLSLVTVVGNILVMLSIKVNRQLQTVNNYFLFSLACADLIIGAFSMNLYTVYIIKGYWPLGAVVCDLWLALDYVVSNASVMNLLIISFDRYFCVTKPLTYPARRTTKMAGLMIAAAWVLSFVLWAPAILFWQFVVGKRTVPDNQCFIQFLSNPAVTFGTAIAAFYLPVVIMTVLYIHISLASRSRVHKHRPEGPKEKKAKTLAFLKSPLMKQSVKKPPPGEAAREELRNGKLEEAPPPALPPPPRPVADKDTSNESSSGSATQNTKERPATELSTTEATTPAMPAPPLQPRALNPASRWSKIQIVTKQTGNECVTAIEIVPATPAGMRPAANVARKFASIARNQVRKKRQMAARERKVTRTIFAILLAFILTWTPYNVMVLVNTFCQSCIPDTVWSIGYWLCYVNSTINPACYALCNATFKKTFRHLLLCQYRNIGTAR

[25] = target: Endothelin-1 receptor (Homo sapiens) (UniProt P25101); conditions: Compound concentration 10.0 uM
[26] = target: Transient receptor potential cation channel subfamily A member 1 (Mus musculus, UniProt Q8BLA8); experiment: FLIPR Ca2+ assay (mouse TRPA1)
[27] = target: Cannabinoid receptor 2 (Homo sapiens) (UniProt P34972); conditions: Compound concentration 10.0 uM
Sequence of Cannabinoid receptor 2 (Homo sapiens) (P34972 whole entry): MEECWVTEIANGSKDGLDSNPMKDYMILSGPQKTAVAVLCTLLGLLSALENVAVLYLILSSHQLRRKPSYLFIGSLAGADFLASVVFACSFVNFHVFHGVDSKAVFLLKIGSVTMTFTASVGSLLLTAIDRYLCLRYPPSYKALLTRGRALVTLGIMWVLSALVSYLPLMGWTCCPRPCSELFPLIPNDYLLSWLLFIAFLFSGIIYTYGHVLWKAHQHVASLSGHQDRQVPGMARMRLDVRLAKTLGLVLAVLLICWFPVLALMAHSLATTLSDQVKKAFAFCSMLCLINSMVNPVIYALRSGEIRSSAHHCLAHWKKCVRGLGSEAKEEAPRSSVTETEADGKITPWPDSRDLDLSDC

[28] = target: D(2) dopamine receptor (Homo sapiens) (UniProt P14416); conditions: Compound concentration 10.0 uM
[29] = target: 5-hydroxytryptamine receptor 6 (Homo sapiens) (UniProt P50406); conditions: Compound concentration 10.0 uM
[30] = target: 5-hydroxytryptamine receptor 1E (Homo sapiens) (UniProt P28566); conditions: Compound concentration 10.0 uM

Sequence of 5-hydroxytryptamine receptor 2A (P28223 whole entry): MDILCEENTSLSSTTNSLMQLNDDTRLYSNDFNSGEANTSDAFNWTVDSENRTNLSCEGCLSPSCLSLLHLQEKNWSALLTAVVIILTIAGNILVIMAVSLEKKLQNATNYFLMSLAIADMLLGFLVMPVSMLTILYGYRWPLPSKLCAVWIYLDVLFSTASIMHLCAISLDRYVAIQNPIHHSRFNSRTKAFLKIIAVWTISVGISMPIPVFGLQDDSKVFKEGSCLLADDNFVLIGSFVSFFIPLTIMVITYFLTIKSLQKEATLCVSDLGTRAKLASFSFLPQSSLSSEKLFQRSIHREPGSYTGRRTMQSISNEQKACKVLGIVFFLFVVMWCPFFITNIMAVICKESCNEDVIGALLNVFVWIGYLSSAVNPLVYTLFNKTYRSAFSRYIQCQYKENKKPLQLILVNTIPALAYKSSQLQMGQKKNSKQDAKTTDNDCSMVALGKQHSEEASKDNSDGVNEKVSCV
Sequence of Beta-3 adrenergic receptor (Homo sapiens) (P13945 whole entry, looked up): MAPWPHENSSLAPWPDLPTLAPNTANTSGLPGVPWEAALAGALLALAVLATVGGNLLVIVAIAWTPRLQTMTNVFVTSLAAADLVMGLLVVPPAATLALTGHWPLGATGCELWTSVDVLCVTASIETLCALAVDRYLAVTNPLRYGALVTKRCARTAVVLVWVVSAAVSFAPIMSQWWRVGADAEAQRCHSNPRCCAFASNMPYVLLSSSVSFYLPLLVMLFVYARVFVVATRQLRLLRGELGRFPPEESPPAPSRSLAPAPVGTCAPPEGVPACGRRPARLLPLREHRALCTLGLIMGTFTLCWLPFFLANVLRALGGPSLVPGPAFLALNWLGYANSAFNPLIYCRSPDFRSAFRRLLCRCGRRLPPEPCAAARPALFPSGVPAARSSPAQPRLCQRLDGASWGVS

O[C@]1(C(F)(F)F)CCCC[C@H]1Nc1ccc(F)cc1 [BAY-390]
1.2 µM: IC50 [21]
inactive: inhibition [2] 1% | inhibition [3] 1% | inhibition [4] 3% | inhibition (Histamine H2 receptor) -8% | inhibition [5] 8% | inhibition (Oryctolagus cuniculus) 3% | inhibition [7] 47% | inhibition [9] -4% | inhibition [10] -3.12% | inhibition [12] 11% | inhibition [13] 4% | inhibition [14] 19.7% | inhibition [15] 36.2% | inhibition [16] 10% | inhibition [17] 15.6% | inhibition [18] 3% | inhibition [19] 8% | inhibition (Rattus norvegicus) -5% | inhibition [22] 0.78% | inhibition [23] 7% | inhibition [24] 14% | inhibition [25] 7% | inhibition [27] 21% | inhibition [28] 13%
0.94 µM: Ki [21]
> 30 µM (not active): IC50 [6]
2.58 µM: Ki [1]
1.38 µM: Ki ([11]; read-out: Ki)
active: inhibition [8] 65% | inhibition [20] 75% | IC50 [26] 0.073 µM
1.35 µM: Ki ([11]; read-out: pKi (converted))

COc1cc(N[C@@H]2CCCC[C@]2(O)C(F)(F)F)ccc1F [BAY-9897]
inactive: inhibition [29] -4.02% | inhibition [30] -4.13%
